Values of other authors in patent US12702640B2, “Drug implants containing enzalutamide and methods of use thereof” (The Regents of the University of California, priority 2021, dated 2026).

Details: assuming 240 mg daily dose; systemic (e.g., oral) administration

steady state blood plasma concentration: about 6 μg/ml
SMILES: CNC(=O)c1ccc(N2C(=S)N(c3ccc(C#N)c(C(F)(F)F)c3)C(=O)C2(C)C)cc1F [enzalutamide, Enzalutamide]
